From publication PMC3842960, “Natural Stilbenoids Isolated from Grapevine Exhibiting Inhibitory Effects against HIV-1 Integrase and Eukaryote MOS1 Transposase In Vitro Activities” (PLoS ONE, 2013)
pIC50: −log10 of the molar value.

Key:
Mos1 transposase (MOS1) [1] = molecular target: T1, Mos1 transposase (MOS1) (Drosophila mauritiana, UniProt Q7JQ07); assay: MOS1 in vitro ITR integration assay; format: biochemical, D. mauritiana; conditions: for inhibition of the integration step: 25 and 10 µM, molecules added after formation of MOS1-ITR complexes
T1 construct: involving the full-length Mos1 transposase (MOS1) was recently solved; made in house
Protocol: These assays were performed using pre-cleaved 3′ITRs (PC-ITR), i.e. ITRs in the configuration expected after excision. […]. Prior to annealing, the transferred strand (70-TS-PC) was 5′-end labelled using T4 polynucleotide kinase (Promega) and γ-^32P-ATP following the manufacturer's instructions. Oligonucleotides were provided by Eurofins MWG Biotech (Germany) or Eurogentec (Belgium). Reaction mixtures containing 10 mM Tris-HCl (pH 9), 50 mM NaCl, 1 mM DTT, 5% glycerol, 100 ng BSA, 100 nM of labelled PC-ITR and 100 nM MBP-MOS1 in a final volume of 20 µl were incubated at 30°C for 30 min. The pBC plasmid (which contained the cat gene, a hot-spot for Mos1 insertion) was then added to 30 ng/µL along with 5 mM MgCl2. Molecules (25 or 10 µM, as specified) or DMSO (2%) were added to the reaction mixtures along with the target DNA to estimate their effect on integration. Reactions were carried out for 3 hours at 30°C. 0.1 mg/ml proteinase K and 0.1% SDS were added to stop the reaction. DNA products were purified by phenol-chloroform extraction and ethanol precipitated using standard techniques. DNA products were resuspended in DNA loading buffer, then separated onto a 1% agarose gel in 1X TAE (Tris Acetate EDTA) buffer. The gel was dried onto a nitrocellulose membrane (Hybond N+, GE Healthcare), scanned using a Storm, and analysed with ImageQuant software. Signals were quantified using ImageQuant software. Efficiency of integration was calculated as the intensity of the integration signal divided by the intensity of free target signal plus integration signal. Each condition was tested at least twice.
The assay used for this step is similar to the HIV-1 IN concerted integration. Briefly, pre-cleaved labelled ITRs are used to form the integration complex. A super-coiled plasmid is used as target DNA. Integration events give a linear labelled plasmid, which can be detected. In these tests, the molecules are added after formation of MOS1-ITR complexes, along with a target plasmid to solely examine the integration inhibition. […] Controls correspond to assays performed without molecule but with DMSO. Reactions were performed at least twice for each selected molecule (leachianol G, leachianol F, quadrangularin A, hopeaphenol, vitisin B and pallidol) and the excision activity is shown in figure 8B .

Mos1 transposase (MOS1) [2] = molecular target: T1, Mos1 transposase (MOS1); assay: MOS1 in vitro transposition assay (genetic hop experiment); format: biochemical, D. mauritiana
Protocol: The wild type Mos1 transposase (MOS1: 345 amino acids) was produced and purified as a fusion protein linked to the maltose-binding protein by using the pMal-c2 system (New England Biolabs) and following the manufacturer's instructions.
In vitro transposition reactions were performed using pBC-3T3 as both the donor DNA and the target, as previously described. Briefly, the basic transposition reaction mixtures contained 10 mM Tris-HCl (pH 9), 50 mM NaCl, 20 mM MgCl2, 0.5 mM EDTA, 5% glycerol, 5 ng/ml BSA, 600 ng pBC-3T3, and 80 nM purified MBP-MOS1 (added last) in a volume of 20 µl. Inhibitors (25 or 10 µM, as specified) or DMSO (2%) were added to the reaction mixtures before the transposase. The reactions were allowed to proceed for 30 min at 30°C. After phenol-chloroform extraction and ethanol precipitation, 10% of the reaction mixture was transformed in electro-competent JM109 E. coli (2 mm cuvette, 1.5 kV in a MicroPulser™BioRad). Appropriate dilutions of each reaction mixture were plated on LB-tetracycline (12.5 µg/ml) agar and LB-chloramphenicol (80 µg/ml) agar to score the transposition rate. The transposition rate was the number of Tet^R colonies divided by the number of Chloram^R plus Tet^R colonies. Each condition was done at least three times in independent experiments.
To identify the natural stilbenes active on MOS1, the 17 molecules were tested using an in vitro genetic “hop” experiment, which is the most sensitive test available as yet. Purified MOS1 was incubated with the pBC-3T3 plasmid, which was used both as the transposon donor and the target plasmid. This plasmid contains the pBR322 tetracycline resistance gene (without promoter) framed by two Mos1 ITRs. This reconstitutes a pseudo-Mos1 element named 3T3. We took advantage of the fact that the cat gene (present in the pBC backbone) is a hotspot for Mos1 integration. […] Transposition events were recovered by bacterial transformation with selection for tetracycline resistance, as a gain-of-function landmark for transposition. […] Controls correspond to assays performed without molecule but with DMSO, which is routinely used as the solvent. […] To confirm the efficiency of the six molecules, they were similarly assayed at 10 µM ( figure 6B ). Since they appeared to be still active at 10 µM, they were further characterized in order to identify the targeted step of the transposition cycle.

T1 sequence (Q7JQ07 whole entry): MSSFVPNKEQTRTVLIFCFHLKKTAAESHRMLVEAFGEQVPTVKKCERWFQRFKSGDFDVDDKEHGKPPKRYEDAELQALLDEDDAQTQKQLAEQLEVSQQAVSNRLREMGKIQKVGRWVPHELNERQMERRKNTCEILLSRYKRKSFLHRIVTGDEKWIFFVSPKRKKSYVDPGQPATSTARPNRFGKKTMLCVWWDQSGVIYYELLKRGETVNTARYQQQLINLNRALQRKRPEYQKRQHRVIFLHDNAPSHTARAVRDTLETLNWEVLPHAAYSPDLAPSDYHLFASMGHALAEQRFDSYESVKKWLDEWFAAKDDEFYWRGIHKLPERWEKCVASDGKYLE

SMILES | pIC50 (Mos1 transposase (MOS1) [1]) | inhibition of the integration step (Mos1 transposase (MOS1) [1]) | activity against MOS1 in transposition assay (Mos1 transposase (MOS1) [2]; 10 µM) | activity against MOS1 in transposition assay (Mos1 transposase (MOS1) [2]; 25 µM)
Oc1ccc([C@@H]2c3c(O)cc(O)cc3[C@H]3c4c(cc(O)cc4C2C2c4cc(O)cc5c4[C@H](c4cc(O)cc(O)c4[C@H]2c2ccc(O)cc2)[C@@H](c2ccc(O)cc2)O5)O[C@@H]3c2ccc(O)cc2)cc1 (some centres unmarked) [hopeaphenol] | ~5.19 | significantly inhibited | still active | active against MOS1
Oc1ccc([C@@H]2c3c(O)cc(O)cc3[C@H]3[C@H](c4ccc(O)cc4)c4c(O)cc(O)cc4[C@@H]23)cc1 [pallidol] | ~5.00 | significantly inhibited | still active | active against MOS1
